Experimental findings from patent US5622962A, “5α-reductase inhibitors” (priority 1995, dated 1997) are described below.

Like-named read-outs stand apart in the source and are kept apart here.

Test [1] concerns the target T1, Type I 5α-Reductase from Human Scalp (Homo sapiens, UniProt P18405).
T1 construct: Scalp punch biopsies from graft recipient sites were obtained from human hair transplant procedures; from tissue; host or cells: human scalp punch biopsies (hair transplant graft recipient sites), homogenate, 100,000×g pellet
T1 sequence (P18405 1-259): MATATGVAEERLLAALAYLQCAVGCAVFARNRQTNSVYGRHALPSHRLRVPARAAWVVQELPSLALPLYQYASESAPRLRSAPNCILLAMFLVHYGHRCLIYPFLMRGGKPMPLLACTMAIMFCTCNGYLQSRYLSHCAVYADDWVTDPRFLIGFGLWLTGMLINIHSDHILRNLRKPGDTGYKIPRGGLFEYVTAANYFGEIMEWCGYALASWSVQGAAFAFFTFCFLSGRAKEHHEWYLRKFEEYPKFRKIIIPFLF
Briefly: Human Type I 5α-reductase assay (conversion of [3H]-testosterone to 5α-reduced metabolites). In kind it is biochemical.

The target of test [2] is T2, Type II 5α-Reductase from Human Prostate (Homo sapiens, UniProt P31213).
T2 construct: The same procedure as above was used for preparations using tissue from prostate surgery; from tissue; host or cells: human prostate tissue from surgery, homogenate, 100,000×g pellet
T2 sequence (P31213 1-254): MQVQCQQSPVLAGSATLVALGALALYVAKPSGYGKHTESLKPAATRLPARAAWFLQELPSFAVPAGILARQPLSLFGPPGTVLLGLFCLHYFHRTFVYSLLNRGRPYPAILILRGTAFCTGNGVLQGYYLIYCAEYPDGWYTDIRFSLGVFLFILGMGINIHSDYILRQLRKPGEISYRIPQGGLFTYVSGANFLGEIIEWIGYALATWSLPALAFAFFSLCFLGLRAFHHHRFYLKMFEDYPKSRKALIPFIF
As to the kind of experiment: Human Type II 5α-reductase assay (conversion of [3H]-testosterone to 5α-reduced metabolites). In kind it is biochemical.

The mark [3] stands for this setting: pH 7.5, read-out: percent inhibition of Type I AR.
[4] abbreviates: pH 5.5, read-out: percent inhibition of Type II AR.
[5] abbreviates: pH 7.5, 0.3 μM, 50 nM [3H]-testosterone, pH 7.5, 25°, 180 min, compared to control reaction mixtures, read-out: percent inhibition of Type I AR.
Setting [6] is: pH 5.5, 0.3 μM, sodium acetate pH 5.5, 25°, 30 min, compared to control reaction mixtures, read-out: percent inhibition of Type II AR.

For `CN1C(=O)CC[C@]2(C)c3ccc(C#Cc4ccccc4)cc3CC[C@@H]12` [Example 284, (4aR)-(10bR)-4,10b-dimethyl-8-(2-phenylethynyl)-1,2,3,4,4a,5,6,10b-octahydrobenzo[f]quinolin-3-one], the inhibition at 0.3 µM in test [1] (setting [3]) was 86%; in test [2] (setting [4]), 63%.
Taken in the same sequence, the figures for `CN1C(=O)CC[C@]2(C)c3ccc(/C=C\c4ccccc4)cc3CC[C@@H]12` [Example 285, (4aR)-(10bR)-4,10b-dimethyl-8-(2-phenylethenyl)-1,2,3,4,4a,5,6,10b-octahydrobenzo[f]quinolin-3-one] were 93% and 36%.
For the molecule `CN1C(=O)CC[C@]2(C)c3ccc(C(=O)c4ccccc4)cc3CC[C@@H]12` [Example 286, (4aR)-(10bR)-8-benzoyl-4,10b-dimethyl-1,2,3,4,4a,5,6,10b-octahydrobenzo[f]quinolin-3-one], the inhibition at 0.3 µM came to 53% in test [1] (setting [5]) and 38% in test [2] (setting [6]).
Taken in the same sequence, the figures for `CN1C(=O)CC[C@]2(C)c3ccc(Cc4ccccc4)cc3CC[C@@H]12` [Example 287, (4aR)-(10bR)-8-benzyl-4,10b-dimethyl-1,2,3,4,4a, 5,6, 10b-octahydrobenzo[f]quinolin-3-one] were 82% and 37%.
In the same order, the values of `CN1C(=O)CC[C@]2(C)c3ccc(C(=O)c4ccccc4Cl)cc3CC[C@@H]12` [Example 288, (4aR)-(10bR)-8-(2-chlorobenzoyl)-4,10b-dimethyl-1,2,3,4,4a,5,6,10b-octahydrobenzo[f]quinolin-3-one] are 19% and 12%.
For `C[C@]12CCC(=O)N[C@@H]1CCc1cc(CSc3ccccc3)ccc12` [Example 289, (4aR)-(10bR)-8-phenylthiomethyl-10b-methyl-1,2,3,4,4a,5,6,10b-octahydrobenzo[f]quinolin-3-one], the inhibition at 0.3 µM in test [1] (setting [5]) was 23%; in test [2] (setting [6]) it was 24%.
For the molecule `C[C@]12CCC(=O)N[C@@H]1CCc1cc(CSc3nc4ccccc4s3)ccc12` [Example 290, (4aR)-(10bR)-8-(2-benzothiazolyl)thiomethyl-10b-methyl-1,2,3,4,4a,5,6,10b-octahydrobenzo[f]quinolin-3-one], the inhibition at 0.3 µM in test [1] (setting [5]) came out at 25%; in test [2] (setting [6]), 8%.
Consider `CN1C(=O)CC[C@]2(C)c3ccc(-c4cccc(CNC(c5ccccc5)c5ccccc5)c4)cc3CC[C@@H]12` [Example 292, (+)-(4aR)-(10bR)-4-methyl-8-(3-diphenylmethylaminomethylphenyl)-10b-methyl-1,2,3,4,4a,5,6,10b-octahydrobenzo[f]quinolin-3-one], for which the inhibition at 0.3 µM in test [1] (setting [5]) turned out to be 86%; in test [2] (setting [6]), 11%.
Regarding “(+)-(4aR)-(10bR)-8-(3-isoquinolinyl)-10b-methyl-3,4,4a,5,6,10b-hexahydrobenzo[f]quinolin-3-one [Example 142]”, the “percent inhibition of Type I AR” value in test [1] (0.3 μM, 50 nM [3H]-testosterone, pH 7.5, 25°, 180 min, compared to control reaction mixtures) was found to be 22%. Further, the “percent inhibition of Type II AR” value in test [2] (0.3 μM, sodium acetate pH 5.5, 25°, 30 min, compared to control reaction mixtures) came to 40%.

By inhibition is commonly meant the change of the read-out against control, counted positive when it falls.
